Measured values published in ChEMBL document CHEMBL3045149, “Antifeedant activity of dihydro--agarofuran sesquiterpenes from Celastraceae against Spodoptera littoralis” (1992).

Tests used:
Format in all cases: functional
Spodoptera littoralis [1] = test: Antifeedant activity against Spodoptera littoralis fifth-instar larvae reared on compound exposed lettuce disks assessed as feeding ratio when 50% of control leaf disk area consumed at 1 ug/cm2 measured for 4 to 5 hr by leaf disk choice method
Spodoptera littoralis [2] = test: Antifeedant activity against Spodoptera littoralis fifth-instar larvae reared on compound exposed lettuce disks assessed as feeding ratio when 50% of control leaf disk area consumed at 10 ug/cm2 measured for 4 to 5 hr by leaf disk choice method
Spodoptera littoralis [3] = test: Antifeedant activity against Spodoptera littoralis fifth-instar larvae reared on compound exposed lettuce disks assessed as feeding ratio when 50% of control leaf disk area consumed at 0.1 ug/cm2 measured for 4 to 5 hr by leaf disk choice method
Spodoptera littoralis [4] = test: Antifeedant activity against Spodoptera littoralis fifth-instar larvae reared on compound exposed lettuce disks assessed as leaf disk protection at 10 to 1 ug/cm2 measured for 4 to 5 hr by leaf disk choice method

Compound | FR50 (Spodoptera littoralis [1]) | FR50 (Spodoptera littoralis [2]) | FR50 (Spodoptera littoralis [3]) | Activity (Spodoptera littoralis [4]) [%]
CC(=O)O[C@H]1[C@H](OC(=O)c2ccccc2)[C@@]2(C)[C@@H](OC(=O)c3ccccc3)C[C@@H]3[C@@H](OC(C)=O)[C@]2(OC3(C)C)[C@@](C)(O)[C@H]1O [2BETA,3BETA,4BETA,TRIHYDROXYCELARBICO] | 0.44 | 0.24 |  | 
CC(=O)O[C@@H]1[C@@H]2[C@@H](OC(C)=O)[C@]3(OC2(C)C)[C@H](C)C[C@H](OC(C)=O)[C@H](OC(C)=O)[C@@]3(CO)[C@H]1OC(=O)c1ccccc1 | 0.53 | 0.07 |  | 
CC(=O)O[C@@H]1[C@@H]2[C@@H](OC(C)=O)[C@]3(OC2(C)C)[C@H](C)C[C@H](OC(C)=O)[C@H](OC(C)=O)[C@@]3(CO)[C@@H]1OC(=O)c1ccccc1 | 0.65 | 0.16 |  | 
CC(=O)O[C@H]1[C@@H]2[C@@H](OC(C)=O)[C@@]3(OC2(C)C)[C@@](C)([C@@H](OC(=O)c2ccccc2)CC[C@]3(C)O)[C@@H]1OC(C)=O | 0.4 | 0.12 |  | 
CC(=O)OC[C@@]12[C@@H](OC(=O)/C=C/c3ccccc3)CC[C@](C)(O)[C@]13OC(C)(C)[C@H]([C@@H](OC(C)=O)[C@H]2OC(=O)c1ccccc1)[C@H]3OC(C)=O |  | 0.27 |  | 
CC(=O)O[C@H]1C[C@@H]2[C@@H](OC(=O)c3cccnc3)[C@@]3(OC2(C)C)[C@@]1(C)[C@@H](OC(=O)c1ccccc1)CC[C@]3(C)O |  | 0.68 |  | 
CC[C@H](C)C(=O)O[C@H]1[C@H](O)C[C@@H]2[C@@](C)([C@@H]3C[C@H]4CCO[C@H]4O3)[C@H](C)C[C@H](OC(C)=O)[C@@]2(COC(C)=O)[C@@]12CO2 [14,15-DIHYDROAJUGAPITIN] |  |  | 0.32 | 
CC(=O)OC[C@]12[C@@H](OC(=O)c3ccccc3)[C@H](OC(C)=O)[C@@H]3[C@@H](OC(C)=O)[C@]1(OC3(C)C)[C@H](C)C[C@H](OC(C)=O)[C@@H]2OC(C)=O | 0.71 | 0.13 |  | 
CC(=O)O[C@@H]1[C@@H](O)[C@@H]2[C@@H](OC(=O)c3cccnc3)[C@@]3(OC2(C)C)[C@@]1(C)[C@@H](OC(=O)c1ccccc1)CC[C@]3(C)O |  | 0.74 |  | 
CC(=O)OC[C@]12[C@@H](OC(=O)c3ccccc3)C[C@@H]3[C@@H](OC(C)=O)[C@]1(OC3(C)C)[C@H](C)C[C@H](OC(C)=O)[C@@H]2OC(C)=O | 0.54 | 0.19 |  | 
CCC(C)C(=O)O[C@H]1[C@H](OC(C)=O)C[C@@H]2[C@@](C)([C@@H]3C[C@H]4CCO[C@H]4O3)[C@H](C)C[C@H](OC(C)=O)[C@@]2(COC(C)=O)[C@@]12CO2 (stereo partly drawn) [2-acetyl-14,15-dihydroajugapitin] |  |  | 0.62 | 
CC(=O)OC[C@]12[C@H](OC(=O)c3ccccc3)[C@H](OC(C)=O)[C@@H]3[C@@H](OC(C)=O)[C@]1(OC3(C)C)[C@@](C)(O)C[C@H](OC(C)=O)[C@@H]2OC(=O)c1ccccc1 |  | 0.35 |  | 
CC(=O)O[C@H]1[C@@H]2[C@@H](OC(=O)c3cccnc3)[C@@]3(OC2(C)C)[C@@](C)([C@@H](OC(=O)c2ccccc2)CC[C@]3(C)O)[C@@H]1OC(C)=O | 0.15 | 0.04 | 0.45 | 100
TRIPHENYLSTANNYL ACETATE |  | 0.37 |  | 
CCC(C)C(=O)O[C@H]1[C@H](O)C[C@@H]2[C@@](C)([C@@H]3C[C@H]4C=CO[C@H]4O3)[C@H](C)C[C@H](OC(C)=O)[C@@]2(COC(C)=O)[C@@]12CO2 (stereo partly drawn) [AJUGAPITIN] |  |  | 0.41 | 
CC(=O)O[C@H]1C[C@@H](C)[C@]23OC(C)(C)[C@H](C[C@H](OC(=O)c4ccccc4)[C@]2(CO)[C@H]1OC(C)=O)[C@H]3OC(C)=O |  | 0.36 |  | 
CC(=O)O[C@H]1[C@@H]2C[C@@]3(OC2(C)C)[C@](C)([C@H]1OC(=O)c1ccccc1)[C@@H](OC(=O)c1ccccc1)[C@H](OC(C)=O)[C@H](OC(C)=O)[C@]3(C)O [2BETA,3BETA,4BETA-TRIHYDROXYCELAPANOL] |  | 0.38 |  | 
CC(=O)OC[C@@]12[C@@H](OC(=O)c3ccccc3)CC[C@](C)(O)[C@]13OC(C)(C)[C@H]([C@@H](OC(C)=O)[C@H]2OC(=O)c1ccccc1)[C@H]3OC(C)=O | 0.58 | 0.24 |  | 
